Reference: patent US11123432B2, “Antimicrobial insect repellent composition” (YEDITEPE UNIVERSITESi, priority 2016, dated 2021)
Like-named read-outs stand apart in the source and are kept apart here.

How the values were obtained:
[1] = result of many toxicity experiments; cited from earlier work
[2] = system: Adenovirus Type 5 (Av-5); format: cell-based, Human adenovirus type 5 Adenoid 75 strain; conditions: for reduction in virus titer: AV-5 (Table 4), ratio 1/1, 20° C., clean and contaminated media; for Ratio of reduction in virus titer: EBAAP; for EBAAP virüs titer: untreated virus titer 6.0
[3] = system: Poliovirus Type 1 (PV-1); format: cell-based, Poliovirus type 1 Chat strain; conditions: for reduction in virus titer: PV-1 (Table 5), ratio 1/1, 20° C., clean and contaminated media; for Ratio of reduction in virus titer: EBAAP; for EBAAP virus titer: untreated virus titer 5.0
[4] = system: enteric bacteria; conditions: Bailey et al. (1980); cited from earlier work
[5] = system: Penicillium expansium; conditions: Qin et al. (2007); cited from earlier work
[6] = AV-5, 5 minutes, contaminated medium
[7] = AV-5, 60 minutes, contaminated medium
[8] = PV-1, 5 minutes, contaminated medium
[9] = PV-1, 60 minutes, contaminated medium

## CCCCN(CCC(=O)OCC)C(C)=O [EBAAP, Ethyl Butyl acetylaminopropionate]
[1]
  irritation on the skin: does not cause irritation on the skin
[2]; 5 minutes
  reduction in virus titer: 2 log
[2]; 60 minutes
  reduction in virus titer: 4 log
[2]; AV-5, 5 minutes, clean medium
  Ratio of reduction in virus titer: 2.0 Logarithmic TCID50
  EBAAP virüs titer: 4.0 Logarithmic TCID50
[2]; [6]
  Ratio of reduction in virus titer: 2.0 Logarithmic TCID50
  EBAAP virüs titer: 4.0 Logarithmic TCID50
[2]; AV-5, 60 minutes, clean medium
  Ratio of reduction in virus titer: 4.0 Logarithmic TCID50
  EBAAP virüs titer: 2.0 Logarithmic TCID50
[2]; [7]
  Ratio of reduction in virus titer: 4.0 Logarithmic TCID50
  EBAAP virüs titer: 2.0 Logarithmic TCID50
[2]; AV-5, used undiluted, 20° C., 60 minute application
  active against virus: 99.9%
[3]; 5 minutes
  reduction in virus titer: 2 log
[3]; 60 minutes
  reduction in virus titer: 4 log
[3]; PV-1, 5 minutes, clean medium
  Ratio of reduction in virus titer: 2.0 Logarithmic TCID50
  EBAAP virus titer: 3.0 Logarithmic TCID50
[3]; [8]
  Ratio of reduction in virus titer: 2.0 Logarithmic TCID50
  EBAAP virus titer: 3.0 Logarithmic TCID50
[3]; PV-1, 60 minutes, clean medium
  Ratio of reduction in virus titer: 4.0 Logarithmic TCID50
  EBAAP virus titer: 1.0 Logarithmic TCID50
[3]; [9]
  Ratio of reduction in virus titer: 4.0 Logarithmic TCID50
  EBAAP virus titer: 1.0 Logarithmic TCID50
[3]; PV-1, used undiluted, 20° C., 60 minute application
  active against virus: 99.9%

## OB(O)O [boric acid]
[4]
  antibacterial activity: has antibacterial activity

## [K+].[K+].[O-]B1OB2OB([O-])OB(O1)O2 [potassium tetraborate]
[5]
  minimum concentration preventing micelle growth: 0.1%
